Consider 15 molecules from ChEMBL document CHEMBL1909046, “DrugMatrix in vitro pharmacology data”.

Where a SMILES comes first, the peptide text is derived from it. Bridges are numbered along the chain shown (N, C = ends). [ ]: non-standard residue; d: D form. The star is where a group is joined. Threoninol(2S,3R) = C[C@@H](O)[C@H](CO)N*

For assay [1], the target named is T1, Alpha-2C adrenergic receptor (Homo sapiens, UniProt P18825).
T1 sequence (P18825 whole entry): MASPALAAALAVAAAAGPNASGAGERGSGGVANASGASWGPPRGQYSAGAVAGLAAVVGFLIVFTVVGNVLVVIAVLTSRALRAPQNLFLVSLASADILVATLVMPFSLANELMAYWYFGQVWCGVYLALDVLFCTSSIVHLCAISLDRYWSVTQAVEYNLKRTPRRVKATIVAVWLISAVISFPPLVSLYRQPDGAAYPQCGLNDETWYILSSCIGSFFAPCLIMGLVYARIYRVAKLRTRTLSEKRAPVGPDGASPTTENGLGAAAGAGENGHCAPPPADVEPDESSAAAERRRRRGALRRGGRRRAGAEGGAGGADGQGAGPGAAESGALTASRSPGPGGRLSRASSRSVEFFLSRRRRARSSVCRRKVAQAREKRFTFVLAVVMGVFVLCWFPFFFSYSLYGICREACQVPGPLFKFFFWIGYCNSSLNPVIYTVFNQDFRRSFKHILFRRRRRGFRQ
Put plainly: DRUGMATRIX: Adrenergic Alpha-2C radioligand binding (ligand: [3H] MK-912). The format is cell membranes, Sf9, Membrane.

For assay [2], the target named is T2, Endothelin-1 receptor (Homo sapiens, UniProt P25101). Also: in other assays of this panel Not Active means under 50% inhibition at 10 µM.
T2 sequence (P25101 whole entry): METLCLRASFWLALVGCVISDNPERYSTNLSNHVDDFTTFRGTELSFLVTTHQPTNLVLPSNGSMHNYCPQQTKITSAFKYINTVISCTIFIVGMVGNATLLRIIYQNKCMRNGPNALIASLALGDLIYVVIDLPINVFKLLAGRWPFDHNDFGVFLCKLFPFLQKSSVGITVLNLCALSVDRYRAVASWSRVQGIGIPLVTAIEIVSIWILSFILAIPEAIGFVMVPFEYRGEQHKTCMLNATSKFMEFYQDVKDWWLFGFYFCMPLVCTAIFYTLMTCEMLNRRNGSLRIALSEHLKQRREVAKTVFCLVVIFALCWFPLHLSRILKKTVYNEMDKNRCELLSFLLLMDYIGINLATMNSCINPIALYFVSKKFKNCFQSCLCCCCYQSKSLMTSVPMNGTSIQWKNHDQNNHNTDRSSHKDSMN
The format is cell membranes, Membrane. The conditions noted are these: cho-k1.

Assay [3] in a line: DRUGMATRIX: Glutamate, AMPA radioligand binding (ligand: [3H] AMPA). Type of assay: cell membranes, Rattus norvegicus, Wistar, Cerebral cortex, Membrane. Particulars: Not Active = under 50% inhibition at 10 µM.
Assay [4] has as its target T3, 3-hydroxy-3-methylglutaryl-coenzyme A reductase (Homo sapiens, UniProt P04035).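 Also: enzyme inhibition assay of HMG-CoA reductase using radiolabeled [14C]HMG-CoA as substrate; in other assays of this panel Not Active means under 50% inhibition at 10 µM.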
T3 sequence (P04035 whole entry): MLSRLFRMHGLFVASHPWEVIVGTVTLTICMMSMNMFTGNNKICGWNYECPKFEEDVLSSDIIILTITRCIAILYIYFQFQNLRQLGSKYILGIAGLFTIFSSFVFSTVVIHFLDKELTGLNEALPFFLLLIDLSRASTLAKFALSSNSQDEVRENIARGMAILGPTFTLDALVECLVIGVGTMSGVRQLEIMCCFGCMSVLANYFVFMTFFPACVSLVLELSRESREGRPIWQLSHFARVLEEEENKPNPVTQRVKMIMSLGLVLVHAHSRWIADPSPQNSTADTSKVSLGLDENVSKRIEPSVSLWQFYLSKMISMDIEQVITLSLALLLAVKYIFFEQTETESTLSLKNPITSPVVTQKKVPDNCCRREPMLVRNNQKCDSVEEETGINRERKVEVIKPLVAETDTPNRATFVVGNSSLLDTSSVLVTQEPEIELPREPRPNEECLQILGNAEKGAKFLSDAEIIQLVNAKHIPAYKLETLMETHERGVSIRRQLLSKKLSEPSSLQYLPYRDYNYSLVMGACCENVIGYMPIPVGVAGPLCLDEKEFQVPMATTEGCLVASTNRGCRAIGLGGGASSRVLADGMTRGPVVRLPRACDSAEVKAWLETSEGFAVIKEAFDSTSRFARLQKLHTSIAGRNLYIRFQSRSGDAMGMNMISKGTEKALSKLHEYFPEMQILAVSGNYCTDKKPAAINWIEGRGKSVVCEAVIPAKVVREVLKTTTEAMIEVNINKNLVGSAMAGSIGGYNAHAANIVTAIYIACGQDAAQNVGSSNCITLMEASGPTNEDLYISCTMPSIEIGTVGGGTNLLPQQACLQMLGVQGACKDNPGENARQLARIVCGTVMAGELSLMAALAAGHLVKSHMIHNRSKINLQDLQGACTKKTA
Set-up: species or system Escherichia coli.

The target in assay [5] is Melanocortin receptor 4 (Homo sapiens, UniProt P32245). Type of assay: cell membranes, Membrane. Particulars: hek293. Also: in other assays of this panel Not Active means under 50% inhibition at 10 µM.
Melanocortin receptor 4, sequence (P32245 whole entry): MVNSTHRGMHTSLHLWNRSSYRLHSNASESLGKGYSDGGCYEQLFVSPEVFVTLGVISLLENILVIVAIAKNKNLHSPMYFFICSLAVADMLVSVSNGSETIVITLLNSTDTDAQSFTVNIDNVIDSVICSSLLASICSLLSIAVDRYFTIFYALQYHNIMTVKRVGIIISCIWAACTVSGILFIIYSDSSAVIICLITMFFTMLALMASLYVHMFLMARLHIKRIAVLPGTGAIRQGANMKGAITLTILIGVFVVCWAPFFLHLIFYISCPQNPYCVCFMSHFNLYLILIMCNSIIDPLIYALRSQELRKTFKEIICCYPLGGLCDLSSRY
The target of assay [6] is cGMP-specific 3',5'-cyclic phosphodiesterase (Homo sapiens, UniProt O76074). Kind of assay: DRUGMATRIX: Phosphodiesterase PDE5 enzyme inhibition (substrate: [3H]cGMP + cGMP). The format is tissue-based. Particulars: platelet; Not Active = under 50% inhibition at 10 µM.
The target of assay [7] is Mitogen-activated protein kinase 3 (Homo sapiens, UniProt P27361). Put plainly: DRUGMATRIX: Protein Serine/Threonine Kinase, ERK1 enzyme inhibition (substrate: Myelin Basic Protein). Set-up: species or system Escherichia coli. Particulars: Not Active = under 50% inhibition at 10 µM.
Mitogen-activated protein kinase 3, sequence (P27361 whole entry): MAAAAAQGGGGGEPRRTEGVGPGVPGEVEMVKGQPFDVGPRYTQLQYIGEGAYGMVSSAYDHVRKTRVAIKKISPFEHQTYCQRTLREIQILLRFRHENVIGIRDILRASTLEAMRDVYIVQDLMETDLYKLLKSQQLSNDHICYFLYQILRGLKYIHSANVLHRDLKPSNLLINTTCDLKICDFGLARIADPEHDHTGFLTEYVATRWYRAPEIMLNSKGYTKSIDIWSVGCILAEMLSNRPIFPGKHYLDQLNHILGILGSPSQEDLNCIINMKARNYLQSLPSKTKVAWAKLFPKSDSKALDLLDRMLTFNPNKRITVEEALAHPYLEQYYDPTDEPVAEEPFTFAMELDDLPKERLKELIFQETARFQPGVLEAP
Assay [8] addresses 5-hydroxytryptamine receptor 1B (Rattus norvegicus, UniProt P28564). The format is cell membranes, Wistar, Cerebral cortex, Membrane.

5-hydroxytryptamine receptor 1B, sequence (P28564 whole entry): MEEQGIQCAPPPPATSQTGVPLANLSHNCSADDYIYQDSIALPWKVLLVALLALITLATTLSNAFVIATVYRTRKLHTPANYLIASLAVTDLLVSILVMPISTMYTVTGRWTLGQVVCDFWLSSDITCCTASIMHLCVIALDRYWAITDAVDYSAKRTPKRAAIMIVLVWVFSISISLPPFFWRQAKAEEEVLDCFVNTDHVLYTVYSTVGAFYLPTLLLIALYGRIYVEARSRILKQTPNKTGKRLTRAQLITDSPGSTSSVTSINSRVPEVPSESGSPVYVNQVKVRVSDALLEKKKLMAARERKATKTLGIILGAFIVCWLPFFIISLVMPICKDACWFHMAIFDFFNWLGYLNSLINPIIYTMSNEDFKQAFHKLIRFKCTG

Take `COc1ccccc1C(=O)N1CCC(Cc2ccccc2)CC1`: the IC50 result in assay [1] (sf9), in assay [2], in assay [3], in assay [4], in assay [5] and in assay [6] was “Not Active” throughout. The IC50 entry in assay [7] and in assay [8] was “Not Active” each time. Also, the inhibitory constant (Ki) entry in assay [3] was “Not Active”.

Take `Cc1ccccc1C(=O)N1CCC(Cc2ccccc2)CC1`: the IC50 result in assay [1] (sf9), in assay [2], in assay [3], in assay [4], in assay [5] and in assay [6] was “Not Active” throughout. The IC50 entry in assay [7] and in assay [8] was “Not Active” in each case. Further, the inhibition constant Ki entry in assay [3] is recorded as “Not Active”.

Regarding `O=C1CC[C@H](N2C(=O)c3ccccc3C2=O)C(=O)N1`, the 50% inhibitory concentration (IC50) result in assay [1] (sf9), in assay [2], in assay [3], in assay [4], in assay [5] and in assay [6] was “Not Active” each time. Moreover, the IC50 result in assay [7] and in assay [8] was “Not Active” throughout. For the same molecule, in assay [3], the Ki result is reported as “Not Active”.

Consider `N=C(Nc1ccccc1)Nc1ccccc1`, for which the IC50 entry in assay [1] (sf9), in assay [2], in assay [3], in assay [4], in assay [5] and in assay [6] was “Not Active” throughout. Also, the 50% inhibitory concentration (IC50) result in assay [7] and in assay [8] was “Not Active” throughout. Also, the inhibition constant Ki result in assay [3] is listed as “Not Active”.

Take `C[C@@H](O)[C@H](CO)NC(=O)[C@@H]1CSSC[C@H](NC(=O)[C@H](N)Cc2ccccc2)C(=O)N[C@@H](Cc2ccccc2)C(=O)N[C@H](Cc2c[nH]c3ccccc23)C(=O)N[C@@H](CCCCN)C(=O)N[C@@H]([C@@H](C)O)C(=O)N1` (H-[dF]CF[dW]KTC-{Threoninol(2S,3R)}; disulfide 2-7): the 50% inhibitory concentration (IC50) entry in assay [1] (sf9), in assay [2], in assay [3], in assay [4], in assay [5] and in assay [6] was “Not Active” each time. Further, the IC50 entry in assay [7] and in assay [8] was “Not Active” in each case. The Ki entry in assay [3] was “Not Active”.

On to `S=C=Nc1cccc2ccccc12` [1-NAPHTHYLISOTHIOCYANATE], for which the IC50 in assay [1] (read-out: IC50) was 54.5 µM; in assay [2] it was “Not Active”; in assay [3], “Not Active”; in assay [4] it was “Not Active”; in assay [5], “Not Active”; in assay [6] it was “Not Active”. Further, the IC50 entry in assay [7] and in assay [8] was “Not Active” throughout. Further, the Ki was 7.92 µM in assay [1] (read-out: Ki) and “Not Active” in assay [3].

Take `C[C@](O)(CS(=O)(=O)c1ccc(F)cc1)C(=O)Nc1ccc(C#N)c(C(F)(F)F)c1` [(R)-BICALUTAMIDE]: the IC50 entry in assay [1] (sf9), in assay [2], in assay [3], in assay [4], in assay [5] and in assay [6] was “Not Active” each time. Besides, the 50% inhibitory concentration (IC50) result in assay [7] and in assay [8] was “Not Active” each time. Also, in assay [3], the Ki result was “Not Active”.

`CCCC(=O)Nc1ccc(OCC(O)CNC(C)C)c(C(C)=O)c1` (configuration not stated) [ACEBUTOLOL]: the IC50 entry in assay [1] (sf9), in assay [2], in assay [3], in assay [4], in assay [5] and in assay [6] was “Not Active” throughout. Further, the concentration for half-maximal inhibition (IC50) entry in assay [7] and in assay [8] was “Not Active” throughout. In addition, the Ki entry in assay [3] was “Not Active”.

Take `CC(=O)Nc1ccc(O)cc1` [ACETAMINOPHEN]: the half-inhibitory concentration (IC50) result in assay [1] (sf9), in assay [2], in assay [3], in assay [4], in assay [5] and in assay [6] was “Not Active” in each case. Besides, the half-inhibitory concentration (IC50) entry in assay [7] and in assay [8] was “Not Active” each time. Moreover, the Ki result in assay [3] was “Not Active”.

Take `COc1cc2c(c3oc(=O)c4c(c13)CCC4=O)[C@@H]1C=CO[C@@H]1O2` [AFLATOXIN]: the concentration for half-maximal inhibition (IC50) entry in assay [1] (sf9), in assay [2], in assay [3], in assay [4], in assay [5] and in assay [6] was “Not Active” each time. The IC50 entry in assay [7] and in assay [8] was “Not Active” each time. Also, the inhibition constant Ki result in assay [1] (sf9), in assay [2], in assay [3], in assay [4], in assay [5] and in assay [6] was “Not Active” throughout. Further, the inhibition constant Ki entry in assay [7] and in assay [8] was “Not Active” in each case.

Take `N=C(N)NC(=O)c1nc(Cl)c(N)nc1N` [AMILORIDE]: the IC50 entry in assay [1] (sf9), in assay [2], in assay [3], in assay [4], in assay [5] and in assay [6] was “Not Active” each time. For the same molecule, the IC50 entry in assay [7] and in assay [8] was “Not Active” each time. In assay [3], the inhibition constant (Ki) result is listed as “Not Active”.

Consider `Cc1cc(=O)n(-c2ccccc2)n1C` [ANTIPYRINE], for which the IC50 entry in assay [1] (sf9), in assay [2], in assay [3], in assay [4], in assay [5] and in assay [6] was “Not Active” in each case. Besides, the 50% inhibitory concentration (IC50) entry in assay [7] and in assay [8] was “Not Active” in each case. In addition, the Ki result in assay [3] is “Not Active”.

Take `CN1C(=O)COc2c(C(=O)NC3CN4CCC3CC4)cc(Cl)cc21` (configuration not stated) [AZASETRON]: the half-maximal inhibitory concentration (IC50) entry in assay [1] (sf9), in assay [2], in assay [3], in assay [4], in assay [5] and in assay [6] was “Not Active” throughout. The IC50 result in assay [7] and in assay [8] was “Not Active” in each case. Moreover, in assay [3], the inhibitory constant (Ki) entry is on record as “Not Active”.

For `C[C@H]1C[C@H]2[C@@H]3CCC4=CC(=O)C=C[C@]4(C)[C@@]3(Cl)[C@@H](O)C[C@]2(C)[C@@]1(O)C(=O)CO` [BECLOMETHASONE], the IC50 result in assay [1] (sf9), in assay [2], in assay [3], in assay [4], in assay [5] and in assay [6] was “Not Active” each time. In addition, the half-maximal inhibitory concentration (IC50) result in assay [7] and in assay [8] was “Not Active” each time. In addition, the Ki result in assay [3] is on record as “Not Active”.

With `COc1ccc2cc([C@H](C)C(=O)O)ccc2c1` [NAPROXEN], the concentration for half-maximal inhibition (IC50) result in assay [1] (sf9), in assay [2], in assay [3], in assay [4], in assay [5] and in assay [7] was “Not Active” in each case. The half-maximal inhibitory concentration (IC50) entry in assay [8] is recorded as “Not Active”. Further, the inhibitory constant (Ki) entry in assay [3] was “Not Active”.
